One test concerns the target T1, EGFR T790M L858R (Homo sapiens, UniProt P00533, L858R/T790M).
T1 construct: purchased Life Technologies PV4879
In words: EGFR T790M L858R biochemical assay (Caliper mobility shift). Conditions: 5 μM ATP; apparent Ki (Morrison fit) converted by Cheng-Prusoff, Km of ATP 1.3 μM. Summed up: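 Caliper mobility-shift read-out, electrophoretic separation of substrate from product, after a 30-minute kinase reaction at 22 °C. EDTA at 80 mM terminates each reaction.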

Another test has as its target T2, EGFR del746-750 T790M (Homo sapiens, UniProt P00533, DEL746-750/T790M).
T2 construct: purchased Carna Biosciences 08-528
Nature of the test: EGFR del746-750 T790M biochemical assay (Caliper mobility shift). The following applies: 5 μM ATP; apparent Ki (Morrison fit) converted by Cheng-Prusoff, Km of ATP 2.1 μM; read-out: EGFR(T790M/d746-750) Ki. The protocol: The exemplified compounds described herein were tested according to the assay below. The enzyme data reported in Tables 4-5 is generally a representative of multiple experiments.
Reactions proceed for 30 minutes at room temperature (22° C.) and are terminated with 80 mM 2,2′,2″,2″′-(ethane-1,2-diyldinitrilo)tetraacetic acid (EDTA). Product is detected using the Caliper mobility shift detection method where product and substrate are electrophoretically separated and measured.

Test [1] concerns the target T3, phosphor-EGFR in H1975(L585R/T790M) mutant EGFR expressing cells (Homo sapiens, UniProt P00533, L858R/T790M).
T3 construct: host or cells: NCI-H1975
In words: H1975 pEGFR MSD cellular assay. In kind it is cell-based. The following applies: NCI-H1975 cells, serum starved, 1 hour compound incubation, pEGFR Tyr1068 MSD; read-out: HI975 pEGFR EC50. In a few lines:
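Phospho-EGFR read by MSD electrochemiluminescence: capture with anti-pEGFR antibody (overnight, 4° C), detection with SULFO-TAG anti-total EGFR (1 hour, room temperature). Before lysis, H1975 cells starved of serum overnight got compound for 1 hour at 37° C, 0.5% DMSO final. EC50 via four-parameter logistic regression of percent inhibition.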

Test [2] has as its system H1975 (EGFR T790M/L858R) cell proliferation. Nature of the test: H1975 proliferation assay (Cell Titer-Glo). In kind it is cell-based. The following applies: Homo sapiens, NCI-H1975, 72 h, NCI-H1975 cells, 72 hour incubation, read-out: H1975 antiproliferative EC50. The method, then: H1975 Proliferation Assays
All cell culture reagents were purchased from Invitrogen/Gibco. Cells are cultured at 37° C. at 5% CO2 and split as recommended by ATCC.
A general note: In ATP-based viability assays light output follows the ATP content of the culture.

The source of these data is patent US9951064B2, “Azaindazole compounds as inhibitors of T790M containing EGFR mutants” (Genentech, Inc., priority 2013, dated 2018).

Bounds are passed on as bounds.

What is called EC50 is the concentration needed to bring the measured effect to its halfway point.

T2 sequence (P00533 with tags, fused parts or gaps DEL746-750/T790M limits assumed): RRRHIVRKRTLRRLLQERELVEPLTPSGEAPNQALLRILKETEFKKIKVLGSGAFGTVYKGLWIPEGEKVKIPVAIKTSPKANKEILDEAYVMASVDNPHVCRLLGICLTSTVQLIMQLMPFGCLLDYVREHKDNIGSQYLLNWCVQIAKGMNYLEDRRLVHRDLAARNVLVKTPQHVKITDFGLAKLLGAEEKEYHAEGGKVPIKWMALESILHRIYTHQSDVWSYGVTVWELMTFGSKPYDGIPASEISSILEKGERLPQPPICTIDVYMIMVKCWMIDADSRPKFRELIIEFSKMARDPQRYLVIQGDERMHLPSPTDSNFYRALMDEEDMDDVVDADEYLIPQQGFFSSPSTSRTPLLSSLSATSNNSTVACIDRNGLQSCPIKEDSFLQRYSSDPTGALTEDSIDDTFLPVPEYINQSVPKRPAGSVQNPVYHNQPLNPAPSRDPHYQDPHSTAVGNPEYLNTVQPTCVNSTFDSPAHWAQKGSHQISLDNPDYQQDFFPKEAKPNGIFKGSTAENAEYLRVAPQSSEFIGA
T1 sequence (P00533 25-1210 T790M/L858R): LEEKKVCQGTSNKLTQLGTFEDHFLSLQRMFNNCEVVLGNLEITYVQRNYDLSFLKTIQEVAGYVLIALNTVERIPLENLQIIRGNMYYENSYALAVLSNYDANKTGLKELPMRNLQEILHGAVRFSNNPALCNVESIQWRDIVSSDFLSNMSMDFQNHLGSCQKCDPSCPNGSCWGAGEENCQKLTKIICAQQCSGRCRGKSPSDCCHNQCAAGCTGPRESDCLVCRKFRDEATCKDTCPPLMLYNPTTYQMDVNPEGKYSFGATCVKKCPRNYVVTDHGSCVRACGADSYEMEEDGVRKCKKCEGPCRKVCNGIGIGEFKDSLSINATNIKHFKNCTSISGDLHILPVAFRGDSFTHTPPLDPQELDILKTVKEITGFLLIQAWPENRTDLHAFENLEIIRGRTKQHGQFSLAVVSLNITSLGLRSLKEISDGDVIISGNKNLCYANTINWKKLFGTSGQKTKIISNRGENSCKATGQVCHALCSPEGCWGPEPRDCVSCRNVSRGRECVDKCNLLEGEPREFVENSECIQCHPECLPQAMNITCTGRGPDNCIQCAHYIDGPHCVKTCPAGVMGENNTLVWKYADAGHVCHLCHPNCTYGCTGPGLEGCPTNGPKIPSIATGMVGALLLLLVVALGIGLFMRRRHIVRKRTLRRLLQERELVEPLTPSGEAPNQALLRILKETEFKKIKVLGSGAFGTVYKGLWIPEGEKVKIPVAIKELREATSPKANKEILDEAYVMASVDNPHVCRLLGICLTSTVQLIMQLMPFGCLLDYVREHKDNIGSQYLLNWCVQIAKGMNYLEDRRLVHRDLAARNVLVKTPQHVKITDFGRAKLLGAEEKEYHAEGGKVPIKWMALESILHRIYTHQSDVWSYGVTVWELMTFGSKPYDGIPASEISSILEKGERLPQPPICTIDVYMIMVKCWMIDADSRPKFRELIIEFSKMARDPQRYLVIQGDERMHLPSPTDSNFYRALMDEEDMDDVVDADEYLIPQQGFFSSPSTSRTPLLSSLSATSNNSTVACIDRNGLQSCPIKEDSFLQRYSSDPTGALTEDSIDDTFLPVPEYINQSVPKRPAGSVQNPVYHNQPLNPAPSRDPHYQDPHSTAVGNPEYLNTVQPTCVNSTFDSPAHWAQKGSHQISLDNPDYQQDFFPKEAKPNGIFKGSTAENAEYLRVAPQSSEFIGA
T3 sequence (P00533 25-1210 T790M/L858R): as above

Turning to `CCC(C)n1nc(N2CC3(COC3)C2)c2cnc(Nc3ccnc(OCC(C)(C)S(C)(=O)=O)n3)cc21` (racemic) [Example 97, [1-(sec-Butyl)-3-(2-oxa-6-azaspiro[3.3]hept-6-yl)-1H-pyrazolo[4,3-c]pyridin-6-yl]-[2-(2-methanesulfonyl-2-methylpropoxy)pyrimidin-4-yl]amine], the Ki on EGFR T790M L858R was found to be 3.2 nM; on EGFR del746-750 T790M it was 5.2 nM. Besides, the EC50 in test [1] was 233 nM; in test [2] it was 1130 nM.
Regarding `CCC(C)n1nc(N2CCNC2=O)c2cnc(Nc3ccnc(OCC(C)(C)S(C)(=O)=O)n3)cc21` (racemic) [Example 99, 1-{1-sec-Butyl-6-[2-(2-methanesulfonyl-2-methylpropoxy)pyrimidin-4-ylamino]-1H-pyrazolo[4,3-c]pyridin-3-yl}imidazolidin-2-one], the Ki at EGFR T790M L858R came out at 3.2 nM; at EGFR del746-750 T790M, 5.6 nM. In addition, the EC50 was determined as 617 nM in test [1] and 1170 nM in test [2].
With `CCC(C)n1nc(N2CCNC2=O)c2cnc(Nc3ccnc(NCC(C)(C)S(C)(=O)=O)n3)cc21` (racemic) [Example 101, 1-{1-sec-Butyl-6-[2-(2-methanesulfonyl-2-methylpropylamino)pyrimidin-4-ylamino]-1H-pyrazolo[4,3-c]pyridin-3-yl}imidazolidin-2-one], the Ki at EGFR T790M L858R came out at 2.3 nM; on EGFR del746-750 T790M it was 2.4 nM. Besides, the EC50 in test [1] was 568 nM; in test [2], 1830 nM.
In the same order, the values of `CCC(C)n1nc(N2CCNC2=O)c2cnc(Nc3ccnc(N4CCC(S(C)(=O)=O)CC4)n3)cc21` (racemic) [Example 102, 1-{1-sec-Butyl-6-[2-(4-methanesulfonylpiperidin-1-yl)pyrimidin-4-ylamino]-1H-pyrazolo[4,3-c]pyridin-3-yl}imidazolidin-2-one] are 2.2 nM, 12.4 nM, 710 nM and 1150 nM.
In the same order, the values of `CO[C@H]1CCN(c2nccc(Nc3cc4c(cn3)c(N3CC5(COC5)C3)nn4C(C)C)n2)C[C@H]1F` (racemic) [Example 103, [2-((cis)-(±)-3-Fluoro-4-methoxypiperidin-1-yl)pyrimidin-4-yl]-[1-isopropyl-3-(2-oxa-6-azaspiro[3.3]hept-6-yl)-1H-pyrazolo[4,3-c]pyridin-6-yl]amine] are 1.1 nM, 3.9 nM, 23.1 nM and 248 nM.
Turning to `CC(C)n1nc(N2CC(O)(C(F)(F)F)C2)c2cnc(Nc3ccnc(N4CC[C@H](O)[C@H](F)C4)n3)cc21` (racemic) [Example 129, (±)-cis-3-Fluoro-1-(4-(3-(3-hydroxy-3-(trifluoromethyl)azetidin-1-yl)-1-isopropyl-1H-pyrazolo[4,3-c]pyridin-6-ylamino)pyrimidin-2-yl)piperidin-4-ol], the Ki on EGFR T790M L858R was 2.7 nM; at EGFR del746-750 T790M, 6.3 nM. Moreover, the results for the EC50 in test [1] and in test [2] were 349 nM and 2720 nM, respectively.
For `CC(C)n1nc(N2CC(F)(CO)C2)c2cnc(Nc3ccnc(N4CC[C@H](O)[C@H](F)C4)n3)cc21` (racemic) [Example 130, (±)-cis-3-Fluoro-1-(4-(3-(3-fluoro-3-(hydroxymethyl)azetidin-1-yl)-1-isopropyl-1H-pyrazolo[4,3-c]pyridin-6-ylamino)pyrimidin-2-yl)piperidin-4-ol], the Ki turned out to be 1.8 nM on EGFR T790M L858R and 3.3 nM at EGFR del746-750 T790M. In addition, the EC50 in test [1] came out at 261 nM; in test [2] it was 1430 nM.
The like results for `CC(C)n1nc(N2CCCC2=O)c2cnc(Nc3ccnc(N4CC[C@H](O)[C@H](F)C4)n3)cc21` (racemic) [Example 133, (±)-1-(6-(2-(cis-3-Fluoro-4-hydroxypiperidin-1-yl)pyrimidin-4-ylamino)-1-isopropyl-1H-pyrazolo[4,3-c]pyridin-3-yl)pyrrolidin-2-one] were, in that order, 1.7 nM, 4.3 nM, 150 nM and 332 nM.
The like results for `C[C@@H](n1nc(N2CC[C@@H](O)C2)c2cnc(Nc3ccnc(N4CC[C@](C)(O)[C@H](F)C4)n3)cc21)C(F)(F)F` (racemic) [Example 140, (3RS,4SR)-3-Fluoro-1-(4-(3-((R)-3-hydroxypyrrolidin-1-yl)-1-((R*)-1,1,1-trifluoropropan-2-yl)-1H-pyrazolo[4,3-c]pyridin-6-ylamino)pyrimidin-2-yl)-4-methylpiperidin-4-ol] were, in that order, 3.1 nM, 6.1 nM, 288 nM and 649 nM.
The like results for `CCC(C)n1nc(N2CC3(COC3)C2)c2cnc(Nc3ccnc(N4C[C@@H](F)[C@@H](O)C(C)(C)C4)n3)cc21` (mixture of isomers) [Example 147, (4SR,5RS)-1-(4-((1-(sec-Butyl)-3-(2-oxa-6-azaspiro[3.3]heptan-6-yl)-1H-pyrazolo[4,3-c]pyridin-6-yl)amino)pyrimidin-2-yl)-5-fluoro-3,3-dimethylpiperidin-4-ol] were, in that order, 2.4 nM, 3.9 nM, 15.8 nM and 227 nM.
`CC(C)n1nc(N2CC[C@@H](O)C2)c2cnc(Nc3ccnc(N4C[C@@H](F)[C@@H](O)C(C)(C)C4)n3)cc21` (racemic) [Example 148, cis-5-Fluoro-1-(4-(3-((R)-3-hydroxypyrrolidin-1-yl)-1-isopropyl-1H-pyrazolo[4,3-c]pyridin-6-ylamino)pyrimidin-2-yl)-3,3-dimethylpiperidin-4-ol]: the Ki worked out at 1.8 nM at EGFR T790M L858R and 2.5 nM at EGFR del746-750 T790M. For the same compound, the results for the EC50 in test [1] and in test [2] were 22.3 nM and 225 nM, respectively.
In the case of `CC(C)n1nc(N2CC(O)CC2=O)c2cnc(Nc3ccnc(N4CC[C@H](O)[C@H](F)C4)n3)cc21` (mixture of isomers) [Example 173, (±)-1-(6-(2-(cis-3-Fluoro-4-hydroxypiperidin-1-yl)pyrimidin-4-ylamino)-1-isopropyl-1H-pyrazolo[4,3-c]pyridin-3-yl)-4-hydroxypyrrolidin-2-one], the Ki at EGFR T790M L858R came out at 2 nM; on EGFR del746-750 T790M, 4.8 nM. The EC50 is 1410 nM in test [1] and over 10000 nM in test [2].
Regarding `CC(C)n1nc(N2CC(F)(F)C2)c2cnc(Nc3ccnc(N4CC[C@H](O)[C@H](F)C4)n3)cc21` (racemic) [Example 174, (±)-cis-1-(4-(3-(3,3-Difluoroazetidin-1-yl)-1-isopropyl-1H-pyrazolo[4,3-c]pyridin-6-ylamino)pyrimidin-2-yl)-3-fluoropiperidin-4-ol], the Ki at EGFR T790M L858R came to 1.8 nM; on EGFR del746-750 T790M, 3.8 nM. Further, the EC50 turned out to be 141 nM in test [1] and 801 nM in test [2].
The like results for `CC(C)n1nc(N2CC3(CC(O)C3)C2)c2cnc(Nc3ccnc(N4CC[C@H](O)[C@H](F)C4)n3)cc21` (racemic) [Example 175, (±)-2-(6-((2-((cis)-3-Fluoro-4-hydroxypiperidin-1-yl)pyrimidin-4-yl)amino)-1-isopropyl-1H-pyrazolo[4,3-c]pyridin-3-yl)-2-azaspiro[3.3]heptan-6-ol] were, in that order, 1.4 nM, 2.6 nM, 97.8 nM and 766 nM.
In the same order, the values of `CC(C)n1nc(NC(C)(C)C#N)c2cnc(Nc3ccnc(N4CC[C@H](O)[C@H](F)C4)n3)cc21` (racemic) [Example 183, (±)-2-(6-(2-(cis-3-Fluoro-4-hydroxypiperidin-1-yl)pyrimidin-4-ylamino)-1-isopropyl-1H-pyrazolo[4,3-c]pyridin-3-ylamino)-2-methylpropanenitrile] are 34.7 nM, 76.7 nM, 1650 nM and 8270 nM.
Turning to `CC[C@H](C)n1nc(N2CC3(COC3)C2)c2cnc(Nc3ccnc(N4CC[C@](C)(O)[C@H](F)C4)n3)cc21` (relative stereo) [Example 65, (3R*,4S*)-1-{4-[1-((S)-sec-Butyl)-3-(2-oxa-6-azaspiro[3.3]hept-6-yl)-1H-pyrazolo[4,3-c]pyridin-6-ylamino]pyrimidin-2-yl}-3-fluoro-4-methylpiperidin-4-ol], the Ki came to 3.6 nM at EGFR T790M L858R and 9.6 nM at EGFR del746-750 T790M. The EC50 is 126 nM in test [1] and 874 nM in test [2].
In the same order, the values of `CC[C@H](C)n1nc(N2CC[C@@H](O)C2)c2cnc(Nc3ccnc(N4CC[C@](C)(O)[C@H](F)C4)n3)cc21` (relative stereo) [Example 69, (3R*,4S*)-1-{4-[1-((S)-sec-Butyl)-3-((R)-3-hydroxypyrrolidin-1-yl)-1H-pyrazolo[4,3-c]pyridin-6-ylamino]pyrimidin-2-yl}-3-fluoro-4-methylpiperidin-4-ol] are 1.7 nM, 2.9 nM, 67.9 nM and 521 nM.
